Earlier results, collected in US7220859B2, “Bicyclic heterocycles as cannabinoid receptor modulators” (Bristol-Myers Squibb Company, priority 2005, dated 2007).

Details: 16 week trial period

## Cc1c(C(=O)NN2CCCCC2)nn(-c2ccc(Cl)cc2Cl)c1-c1ccc(Cl)cc1 [SR-141716]
  body weight in human subjects: dose-dependently reduced body weight
